# According to patent US10745414B2, “Crystal salt form of 2,2-dimethyl-6-((4-((3,4,5-trimethoxyphenyl)amino)-1,3,5-triazine-2-yl)amino)-2H-pyrido[3,2-b][1,4]oxazine-3(4H)-one for human use” (LIMITED “MOLECULAR TECHNOLOGIES”, priority 2016, dated 2020):
# Tests used:
# [1] = pharmacokinetics in rabbits at single administration; type: in vivo; conditions: 50 mg/kg
# [2] = pharmacokinetics in blood plasma after oral administration in Wistar rats; conditions: rat, in vivo, 21 mg/kg
# [3] = as above; conditions: rat, in vivo
# Description: At the first stage, pharmacokinetics of the Compound 1 free base was studied after oral administration in Wistar rats at dosage of 30 mg/kg.
# Pharmacokinetics of several Compound 1 salt forms was studied after oral administration in Wistar rats at a dose of 37 mg/kg (30 mg/kg equivalent to a free base).
# [4] = tested on: mature human osteoclasts; test: osteoclast-mediated resorption of mineralized matrix; type: cell-based; conditions: 1.1 μM and 10 μM, 48 hours
# Description: The study was carried out following the method below: CD15+ monocytes (osteoclast precursor cells) were cultivated for 3 days in a proliferation medium (Igla α-modified minimum essential medium/fetal calf serum (aMEM/FCS), 10% with 25 ng/ml of macrophage colony-stimulating factor (M-CSF)). During this stage M-CSF promoted proliferation and expression of a receptor activator of nuclear factor KB (RANK, cappa-B, type I membrane protein). The proliferation medium was removed and cells were differentiated in a differentiation medium (aMEM/FCS-10% with 100 ng/ml of RANKL and 25 ng/ml of M-CSF). When mature osteoclasts were detected in the culture (day 4 of the study), the cells were collected and re-inoculated into a 96-well plate coated with a synthetic mineralized matrix. Cultivation continued for 48 hours (at presence of the studied compounds) to evaluate osteoclast resorption. Then number of mature osteoclasts and the resorption degree were evaluated. An effect of 4-methylbenzenesulfonic acid and Compound 1 salt concentration on concentration and resorption degree of mature osteoclasts was evaluated in comparison with control samples ([…] control, 0.3% DMSO solvent) and reference inhibitors, i.e., saracatinib and bosutinib (see FIG. 18).
# [5] = distribution across organs and tissues in rats; type: in vivo
# Description: When the 4-methylbenzenesulfonic acid and Compound 1 salt hydrate is administered intragastrically at dosages 30 to 200 mg/kg, the Compound 1 concentration in rat blood plasma increases in proportion to the dose. High concentrations of the Compound 1 was found almost in all the tissues studied and reached maximum at 2 to 4 hours after 4-methylbenzenesulfonic acid and Compound 1 salt hydrate administration.
# [6] = tested on: Sprague-Dawley rat models of osteoarthritis induced by intra-articular introduction of sodium iodoacetate; test: mechanical allodynia test with von Frey filaments in osteoarthritis induced by sodium iodoacetate; type: in vivo
# Description: The intra-articular introduction of aerobic glycolysis inhibitor (sodium iodoacetate) results in death of chondrocytes and acute inflammatory reaction in a synovial cavity. In absence of treatment, at day 10 from the pathology induction an onset of chronic pain is observed due to cartilage destruction and development of chronic inflammation in particular cases [J Musculoskel Neuron Interact 2001; 1(4):363-376]. Extent of osteoarthritis development in rats was evaluated by comparison of extremity pain sensitivity threshold after the introduction of sodium iodoacetate versus background measurements taken before the pathology induction. The threshold of the pain sensitivity was evaluated by mechanical allodynia test using von Frey filaments (see Table 8).
# For the purposes of the study, rat males weighing 150 to 200 g were selected. All the animals underwent acclimatization for 14 days. The animals were housed in a polycarbonate cages of 3H type manufactured by Charles River laboratories Inc according to COST R 53434-2009. 12-hours lighting regimen was maintained. The animals had access to food and water ad libitum. The pathology was induced by introduction of 50 μl solution containing 2 mg of sodium iodoacetate into a synovial cavity of the animal knee joints. Tactile allodynia induced by a mechanical irritation was evaluated using von Frey filaments weighing 0.06 to 23.96 g. The test was repeated five times for each filament at intervals of 1 to 2 s. The sensitivity threshold was considered as a minimum reaction threshold provoking paw withdrawal in one of five repeats.
smiles,measurement,setting,value
"COc1cc(Nc2ncnc(Nc3ccc4c(n3)NC(=O)C(C)(C)O4)n2)cc(OC)c1OC.Cc1ccc(S(=O)(=O)O)cc1.O [monohydrate of 4-methylbenzenesulfonic acid and 2,2-dimethyl-6-((4-((3,4,5-trimethoxyphenyl)amino)-1,3,5-triazine-2-yl)amino)-2H-pyrido[3,2-b][1,4]oxazine-3(4H)-one base]",elimination half-time,[1],more than 7 hours
same,Cmax,[2],416 ng/mL
same,time of reaching maximum concentration in blood,[3],1.1 to 1.3 h
same,effect on osteoclast-mediated resorption of the mineralized matrix,[4],profound statistically significant inhibitory effect
same,tissue with lowest concentration,[5],lowest concentration of the Compound 1 was registered in muscles
same,daily average concentration in bone and cartilage tissues versus daily average concentration in blood plasma,[5]; intragastric,more than three times
same,"Reaction threshold value, % of control","[6]; 100 mg/kg intragastric, days 0-28 (daily), day 14 from pathology induction",106 % of control
same,"Reaction threshold value, % of control","[6]; 100 mg/kg intragastric, days 0-28 (daily), day 21",80 % of control
same,"Reaction threshold value, % of control","[6]; 100 mg/kg intragastric, days 0-28 (daily), day 28",106 % of control
same,"Reaction threshold value, % of control","[6]; 100 mg/kg intragastric, days 7-28 (daily), day 14",70 % of control
same,"Reaction threshold value, % of control","[6]; 100 mg/kg intragastric, days 7-28 (daily), day 21",75 % of control
same,"Reaction threshold value, % of control","[6]; 100 mg/kg intragastric, days 7-28 (daily), day 28",73 % of control
same,"Reaction threshold value, % of control","[6]; 500 mg/kg intragastric, days 0-28 (daily), day 14",114 % of control
same,"Reaction threshold value, % of control","[6]; 500 mg/kg intragastric, days 0-28 (daily), day 21",106 % of control
same,"Reaction threshold value, % of control","[6]; 500 mg/kg intragastric, days 0-28 (daily), day 28",107 % of control
same,"Reaction threshold value, % of control","[6]; 500 mg/kg intragastric, days 7-28 (daily), day 14",76 % of control
same,"Reaction threshold value, % of control","[6]; 500 mg/kg intragastric, days 7-28 (daily), day 21",91 % of control
same,"Reaction threshold value, % of control","[6]; 500 mg/kg intragastric, days 7-28 (daily), day 28",118 % of control
same,mechanical allodynia onset,"[6]; 100 and 500 mg/kg from day of pathology induction, 500 mg/kg from the seventh day",Total arrest of mechanical allodynia onset
